Twelve compounds from patent US12441762B2, “Hepatitis c virus NS3/4A protease inhibitors” (priority 2019, dated 2025) can be followed below.

Experiment in all cases: biochemical
Assay [1] concerns the target T1, HCV NS3/4A protease D168A variant (Hepatitis C virus genotype 1a, UniProt P27958, C1185S/D1194A).
T1 construct: His-tag (cleaved yes); made in house; host or cells: Escherichia coli BL21(DE3), PET28a vector
Format: biochemical. Here is the method:
(§1) The HCV GT1a NS3/4A protease gene described in the Bristol Myers Squibb patent was synthesized by GenScript and cloned into a PET28a expression vector. Cys159 was mutated to a serine residue to prevent disulfide bond formation and facilitate crystallization. The D168A gene was engineered using the site-directed mutagenesis protocol from Stratagene. Protein expression and purification were carried out as previously described.
(§2) Km constants for GT1 and D168A protease were previously determined. […] Inner filter effect corrections were applied to the initial velocities (Vo) at each substrate concentration. Vo versus substrate concentration graphs were globally fit to the Michaelis-Menten equation to obtain the Km value.
(§3) For each assay, 2 nM of NS3/4A protease (GT1a and D168A) was pre-incubated at room temperature for 1 h with increasing concentration of inhibitors in assay buffer (50 mM Tris, 5% glycerol, 10 mM DTT, 0.6 mM LDAO, and 4% dimethyl sulfoxide, pH 7.5). Inhibition assays were performed in non-binding surface 96-well black half-area plates (Corning) in a reaction volume of 60 μL. […] Three independent data sets were collected for each inhibitor with each protease construct.

In assay [2] the target is T2, wild-type HCV NS3/4A protease (GT1a) (Hepatitis C virus genotype 1a, UniProt P27958, C1185S).
T2 construct: His-tag (cleaved yes); made in house; host or cells: Escherichia coli BL21(DE3), PET28a vector
T2 sequence (P27958 1027-1208 C1185S): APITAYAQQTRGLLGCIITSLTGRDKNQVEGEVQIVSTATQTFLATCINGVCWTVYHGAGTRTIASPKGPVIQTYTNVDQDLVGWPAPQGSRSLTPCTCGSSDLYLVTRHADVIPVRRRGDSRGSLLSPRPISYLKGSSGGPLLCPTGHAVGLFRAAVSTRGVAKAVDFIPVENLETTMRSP
In kind it is biochemical. Here is the method:
as §1, §2, §3

Assay [3] has as its system HCV NS3/4A protease D168A variant. In kind it is biochemical, Hepatitis C virus. The following applies: Table S1, value in parentheses. Here is the method: as §1, §2, §3

T1 sequence (P27958 1027-1208 C1185S/D1194A): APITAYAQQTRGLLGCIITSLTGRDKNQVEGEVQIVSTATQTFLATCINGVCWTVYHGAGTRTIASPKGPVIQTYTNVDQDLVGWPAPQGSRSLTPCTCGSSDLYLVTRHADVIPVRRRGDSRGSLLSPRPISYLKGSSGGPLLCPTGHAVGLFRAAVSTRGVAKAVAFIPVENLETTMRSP

Consider `COc1ccc2nc(C)c(O[C@@H]3C[C@H]4C(=O)N[C@]5(C(=O)NS(=O)(=O)C6(C)CC6)C[C@H]5/C=C\CCCCC[C@H](NC(=O)OC5(C)CC5)C(=O)N4C3)nc2c1` [NR02-24, 1-Methylcyclopropyl ((2R,6S,13aS,14aR,16aS,Z)-2-((7-methoxy-3-methylquinoxalin-2-yl)oxy)-14a-(((1-methylcyclopropyl)sulfonyl)carbamoyl)-5,16-dioxo-1,2,3,5,6,7,8,9,10,11,13a,14,14a,15,16,16a-hexadecahydrocyclopropa[e]pyrrolo [1,2-a][1,4]diazacyclopentadecin-6-yl)carbamate], for which the Ki in assay [1] is 0.0279 ± 0.0041 µM; in assay [2], 0.00444 ± 0.0003 µM. For the same compound, in assay [1] (compared to parent compound), the “fold increase in potency against D168A compared to the parent compound” value is around 2 fold. Also, the “Fold Change of D168A Ki with respect to GT1a wild-type” value in assay [3] is recorded as “(6) fold”.
Regarding `COc1ccc2nc(C(F)(F)F)c(O[C@@H]3C[C@H]4C(=O)N[C@]5(C(=O)NS(=O)(=O)C6(C)CC6)C[C@H]5/C=C\CCCCC[C@H](NC(=O)O[C@H](C)C(C)C)C(=O)N4C3)nc2c1` [NR01-121, (R)-3-Methylbutan-2-yl ((2R,6S,13aS,14aR,16aS,Z)-2-((7-methoxy-3-(trifluoromethyl)quinoxalin-2-yl)oxy)-14a-(((1-methylcyclopropyl)sulfonyl)carbamoyl)-5,16-dioxo-1,2,3,5,6,7,8,9,10,11,13a,14,14a,15,16,16a-hexadecahydrocyclopropa[e]pyrrolo[1,2-a][1,4]diazacyclopentadecin-6-yl)carbamate], the Ki in assay [1] came to 0.0104 ± 0.0009 µM; in assay [2], 0.00296 ± 0.00022 µM.
For `COc1ccc2nc(C(F)(F)F)c(O[C@@H]3C[C@H]4C(=O)N[C@]5(C(=O)NS(=O)(=O)C6(C)CC6)C[C@H]5/C=C\CCCCC[C@H](NC(=O)OC5(C)CC5)C(=O)N4C3)nc2c1` [NR02-31, 1-Methylcyclopropyl ((2R,6S,13aS,14aR,16aS,Z)-2-((7-methoxy-3-(trifluoromethyl)quinoxalin-2-yl)oxy)-14a-(((1-methylcyclopropyl)sulfonyl)carbamoyl)-5,16-dioxo-1,2,3,5,6,7,8,9,10,11,13a,14,14a,15,16,16a-hexadecahydrocyclopropa[e]pyrrolo[1,2-a][1,4]diazacyclopentadecin-6-yl)carbamate], the Ki is 0.0413 ± 0.0073 µM in assay [1] and 0.0114 ± 0.00084 µM in assay [2].
Regarding `CCC(CC)OC(=O)N[C@H]1CCCCC/C=C\[C@@H]2C[C@@]2(C(=O)NS(=O)(=O)C2(C)CC2)NC(=O)[C@@H]2C[C@@H](Oc3nc4cc(OC)ccc4nc3C(F)(F)F)CN2C1=O` [NR02-52, Pentan-3-yl ((2R,6S,13aS,14aR,16aS,Z)-2-((7-methoxy-3-(trifluoromethyl)quinoxalin-2-yl)oxy)-14a-(((1-methylcyclopropyl)sulfonyl)carbamoyl)-5,16-dioxo-1,2,3,5,6,7,8,9,10,11,13a,14,14a,15,16,16a-hexadecahydrocyclopropa[e]pyrrolo[1,2-a][1,4]diazacyclopentadecin-6-yl)carbamate], the Ki in assay [1] was found to be 0.0209 ± 0.0021 µM; in assay [2], 0.0046 ± 0.00066 µM.
On to `COc1ccc2nc(C)c(O[C@@H]3C[C@H]4C(=O)N[C@]5(C(=O)NS(=O)(=O)C6(C)CC6)C[C@H]5/C=C\CCCCC[C@H](NC(=O)OC(C)(C)C(F)(F)F)C(=O)N4C3)nc2c1` [AJ-71, 1,1,1-Trifluoro-2-methylpropan-2-yl ((2R,6S,13aS,14aR,16aS,Z)-2-((7-methoxy-3-methylquinoxalin-2-yl)oxy)-14a-(((1-methylcyclopropyl)sulfonyl)carbamoyl)-5,16-dioxo-1,2,3,5,6,7,8,9,10,11,13a,14,14a,15,16,16a-hexadecahydrocyclopropa[e]pyrrolo[1,2-a][1,4]diazacyclopentadecin-6-yl)carbamate], for which the figures for the Ki in assay [1] and in assay [2] were 0.039 ± 0.0029 µM and 0.00256 ± 0.00044 µM, respectively.
The like results for `COc1ccc2nc(C(F)(F)F)c(O[C@@H]3C[C@H]4C(=O)N[C@]5(C(=O)NS(=O)(=O)C6(C)CC6)C[C@H]5/C=C\CCCCC[C@H](NC(=O)OCC(C)C)C(=O)N4C3)nc2c1` [NR02-41, Isobutyl ((2R,6S,13aS,14aR,16aS,Z)-2-((7-methoxy-3-(trifluoromethyl)quinoxalin-2-yl)oxy)-14a-(((1-methylcyclopropyl)sulfonyl)carbamoyl)-5,16-dioxo-1,2,3,5,6,7,8,9,10,11,13a,14,14a,15,16,16a-hexadecahydrocyclopropa[e]pyrrolo[1,2-a][1,4]diazacyclopentadecin-6-yl)carbamate] were, in that order, 0.0149 ± 0.0014 µM and 0.00401 ± 0.00046 µM.
For the compound `COc1ccc2nc(C)c(O[C@@H]3C[C@H]4C(=O)N[C@]5(C(=O)NS(=O)(=O)C6(C)CC6)C[C@H]5/C=C\CCCCC[C@H](NC(=O)O[C@H](C)C5CC5)C(=O)N4C3)nc2c1` [NR02-26, (R)-1-Cyclopropylethyl ((2R,6S,13aS,14aR,16aS,Z)-2-((7-methoxy-3-methylquinoxalin-2-yl)oxy)-14a-(((1-methylcyclopropyl)sulfonyl)carbamoyl)-5,16-dioxo-1,2,3,5,6,7,8,9,10,11,13a,14,14a,15,16,16a-hexadecahydrocyclopropa[e]pyrrolo[1,2-a][1,4]diazacyclopentadecin-6-yl)carbamate], the Ki in assay [1] was 0.0235 ± 0.0013 µM; in assay [2] it was 0.0015 ± 6e-05 µM.
With `COc1ccc2nc(C)c(O[C@@H]3C[C@H]4C(=O)N[C@]5(C(=O)NS(=O)(=O)C6(C)CC6)C[C@H]5/C=C\CCCCC[C@H](NC(=O)OCC5(C(F)(F)F)CC5)C(=O)N4C3)nc2c1` [NR02-49, (1-(Trifluoromethyl)cyclopropyl)methyl ((2R,6S,13aS,14aR,16aS,Z)-2-((7-methoxy-3-methylquinoxalin-2-yl)oxy)-14a-(((1-methylcyclopropyl)sulfonyl)carbamoyl)-5,16-dioxo-1,2,3,5,6,7,8,9,10,11,13a,14,14a,15,16,16a-hexadecahydrocyclopropa[e]pyrrolo[1,2-a][1,4]diazacyclopentadecin-6-yl)carbamate], the results for the Ki in assay [1] and in assay [2] were 0.0274 ± 0.0012 µM and 0.0009 ± 0.0001 µM, respectively.
The like results for `CCC(C)(C)OC(=O)N[C@H]1CCCCC/C=C\[C@@H]2C[C@@]2(C(=O)NS(=O)(=O)C2(C)CC2)NC(=O)[C@@H]2C[C@@H](Oc3nc4cc(OC)ccc4nc3C(F)(F)F)CN2C1=O` [NR02-47, tert-Pentyl ((2R,6S,13aS,14aR,16aS,Z)-2-((7-methoxy-3-(trifluoromethyl)quinoxalin-2-yl)oxy)-14a-(((1-methylcyclopropyl)sulfonyl)carbamoyl)-5,16-dioxo-1,2,3,5,6,7,8,9,10,11,13a,14,14a,15,16,16a-hexadecahydrocyclopropa[e]pyrrolo[1,2-a][1,4]diazacyclopentadecin-6-yl)carbamate] were, in that order, 0.0151 ± 0.001 µM and 0.00267 ± 0.00023 µM.
The like results for `COc1ccc2nc(C(F)(F)F)c(O[C@@H]3C[C@H]4C(=O)N[C@]5(C(=O)NS(=O)(=O)C6(C)CC6)C[C@H]5/C=C\CCCCC[C@H](NC(=O)OCC(C)(C)C)C(=O)N4C3)nc2c1` [NR02-48, Neopentyl ((2R,6S,13aS,14aR,16aS,Z)-2-((7-methoxy-3-(trifluoromethyl)quinoxalin-2-yl)oxy)-14a-(((1-methylcyclopropyl)sulfonyl)carbamoyl)-5,16-dioxo-1,2,3,5,6,7,8,9,10,11,13a,14,14a,15,16,16a-hexadecahydrocyclopropa[e]pyrrolo[1,2-a][1,4]diazacyclopentadecin-6-yl)carbamate] were, in that order, 0.013 ± 0.0016 µM and 0.00294 ± 0.00014 µM.
The like results for `COc1ccc2nc(C)c(O[C@@H]3C[C@H]4C(=O)N[C@]5(C(=O)NS(=O)(=O)C6(C)CC6)C[C@H]5/C=C\CCCCC[C@H](NC(=O)OCC5(C)CC5)C(=O)N4C3)nc2c1` [NR01-115, (1-Methylcyclopropyl)methyl ((2R,6S,13aS,14aR,16aS,Z)-2-((7-methoxy-3-methylquinoxalin-2-yl)oxy)-14a-(((1-methylcyclopropyl)sulfonyl)carbamoyl)-5,16-dioxo-1,2,3,5,6,7,8,9,10,11,13a,14,14a,15,16,16a-hexadecahydrocyclopropa[e]pyrrolo[1,2-a][1,4]diazacyclopentadecin-6-yl)carbamate] were, in that order, 0.0216 ± 0.0017 µM and 0.00065 ± 0.0002 µM.
Consider `COc1ccc2nc(C(F)(F)F)c(O[C@@H]3C[C@H]4C(=O)N[C@]5(C(=O)NS(=O)(=O)C6(C)CC6)C[C@H]5/C=C\CCCCC[C@H](NC(=O)OCC5(C(F)(F)F)CC5)C(=O)N4C3)nc2c1` [NR02-50, (1-(Trifluoromethyl)cyclopropyl)methyl ((2R,6S,13aS,14aR,16aS,Z)-2-((7-methoxy-3-(trifluoromethyl)quinoxalin-2-yl)oxy)-14a-(((1-methylcyclopropyl)sulfonyl)carbamoyl)-5,16-dioxo-1,2,3,5,6,7,8,9,10,11,13a,14,14a,15,16,16a-hexadecahydrocyclopropa[e]pyrrolo[1,2-a][1,4]diazacyclopentadecin-6-yl)carbamate], for which the figures for the Ki in assay [1] and in assay [2] were 0.0395 ± 0.0051 µM and 0.00346 ± 0.00026 µM, respectively.
